Where a name gives a salt, the structure may show the parent alone. Read-outs that look alike come from different tables or passages of the source.
Columns and labels:
Assay type in all cases: cell-based
[1] = tested on: S. marcescens 5805; experiment: In vitro antibacterial activity (MIC)
How it was run: (§1)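 Twofold-style dilution series (128 to 0.008 μg/ml) made in Mueller-Hinton broth, dispensed, then inoculated with 1.5 μl of a 10^-2 overnight-culture dilution. Plates sealed, held overnight at 37° C, inspected with a viewer.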

[2] = tested on: E. cloacae 9295; experiment: In vitro antibacterial activity (MIC)
How it was run: as §1

[3] = tested on: E. coli 387-1; experiment: In vitro antibacterial activity (MIC)
How it was run: as §1

[4] = tested on: S. pyogenes 4; experiment: In vitro antibacterial activity (MIC)
How it was run: as §1

[5] = tested on: S. marcescens S3; experiment: In vitro antibacterial activity (MIC); conditions: S. marcescens S3
How it was run: as §1

[6] = tested on: P. rettgeri ATCC 9250; experiment: In vitro antibacterial activity (MIC)
How it was run: as §1

[7] = tested on: P. aeruginosa 8710; experiment: In vitro antibacterial activity (MIC); conditions: P. aeruginosa 8710
How it was run: as §1

[8] = tested on: E. aerogenes 83; experiment: In vitro antibacterial activity (MIC)
How it was run: as §1

[9] = tested on: K. pneumoniae 35; experiment: In vitro antibacterial activity (MIC); conditions: K. pneumoniae 35
How it was run: as §1

[10] = tested on: P. aeruginosa B; experiment: In vitro antibacterial activity (MIC)
How it was run: as §1

[11] = tested on: S. faecalis C1; experiment: In vitro antibacterial activity (MIC); conditions: S. faecalis C1
How it was run: as §1

[12] = tested on: K. pneumoniae HE7; experiment: In vitro antibacterial activity (MIC); conditions: K. pneumoniae HE7
How it was run: as §1

[13] = tested on: S. aureus Giorgio; experiment: In vitro antibacterial activity (MIC); conditions: S. aureus Giorgio
How it was run: as §1

[14] = tested on: S. marcescens S147; experiment: In vitro antibacterial activity (MIC); conditions: S. marcescens S147
How it was run: as §1

[15] = tested on: K. pneumoniae 8357; experiment: In vitro antibacterial activity (MIC)
How it was run: as §1

[16] = tested on: K. pneumoniae 503-964; experiment: In vitro antibacterial activity (MIC); conditions: K. pneumoniae 503-964
How it was run: as §1

[17] = tested on: S. marcescens SM; experiment: In vitro antibacterial activity (MIC)
How it was run: as §1

[18] = tested on: S. marcescens S714; experiment: In vitro antibacterial activity (MIC)
How it was run: as §1

[19] = tested on: P. aeruginosa 5700; experiment: In vitro antibacterial activity (MIC)
How it was run: as §1

[20] = tested on: P. aeruginosa Stone 130; experiment: In vitro antibacterial activity (MIC)
How it was run: as §1

[21] = tested on: P. mirabilis 190; experiment: In vitro antibacterial activity (MIC)
How it was run: as §1

[22] = tested on: S. typhi P58A; experiment: In vitro antibacterial activity (MIC)
How it was run: as §1

[23] = tested on: E. coli 257; experiment: In vitro antibacterial activity (MIC, Mueller-Hinton broth)
Protocol: Drug dilutions are prepared in Mueller-Hinton broth ranging from 128 to 0.008 μg/ml. The diluted agents are dispensed in 100 μl amounts into the wells of a 96-well tray and used immediately or frozen at -10° to -70° C. until needed. Using an automated inoculator, 1.5 μl of a 10^-2 dilution of an overnight culture is added to each well of the tray. The tops of the trays are then sealed using transparent tape and incubated overnight at 37° C. The trays are examined with the aid of a viewer. The lowest concentration at which no growth is observed is considered to be the minimum inhibitory concentration (MIC).

[24] = Serratia marcescens, 5805, S. marcescens 5805, read-out: MIC
[25] = Enterobacter cloacae, 9295, E. cloacae 9295, read-out: MIC
[26] = Escherichia coli, 3871, E. coli 387-1, read-out: MIC
[27] = Streptococcus pyogenes, 4, S. pyogenes 4, read-out: MIC
[28] = Serratia marcescens, read-out: MIC
[29] = Providencia rettgeri, ATCC9250, P. rettgeri ATCC 9250, read-out: MIC
[30] = Pseudomonas aeruginosa, read-out: MIC
[31] = Klebsiella aerogenes, 83, E. aerogenes 83, read-out: MIC
[32] = Klebsiella pneumoniae, read-out: MIC
[33] = Enterococcus faecalis, read-out: MIC
[34] = Staphylococcus aureus, read-out: MIC
[35] = Klebsiella pneumoniae, 8357, K. pneumoniae 8357, read-out: MIC
[36] = Klebsiella pneumoniae, 503964, read-out: MIC
[37] = Serratia marcescens, S714, S. marcescens S714, read-out: MIC
[38] = Pseudomonas aeruginosa, 5700, P. aeruginosa 5700, read-out: MIC
[39] = Pseudomonas aeruginosa, STONE130, read-out: MIC
[40] = Proteus mirabilis, 190, P. mirabilis 190, read-out: MIC
[41] = Escherichia coli, 257, E. coli 257, read-out: MIC

CC1(C)S[C@@H]2[C@H](N=CN3CCC(CCCn4ccnc4)CC3)C(=O)N2[C@H]1C(=O)O [C, [2S-(2alpha,5alpha,6beta)]-6-[[4-[3-(1H-imidazol-1-yl)propyl]-1-piperidinyl]methylene]amino]-3,3-dimethyl-7-oxo-4-thia-1-azabicyclo[3.2.0]heptane-2-carboxylic acid 1.2 mole hydrochloride monohydrate]
MIC [1, 24]: 32 µg/mL
MIC [2, 25]: 16 µg/mL
MIC [3, 26]: 8 µg/mL
MIC [4, 27]: 64 µg/mL
MIC [5, 28]: 16 µg/mL
MIC [6, 29]: 16 µg/mL
MIC [7, 30]: > 128 µg/mL
MIC [8, 31]: > 128 µg/mL
MIC [9, 32]: 8 µg/mL
MIC [10, 30]: 8 µg/mL
MIC [11, 33]: > 128 µg/mL
MIC [12, 32]: > 128 µg/mL
MIC [13, 34]: > 128 µg/mL
MIC [14, 28]: 16 µg/mL
MIC [15, 35]: 16 µg/mL
MIC [16, 36]: 8 µg/mL
MIC [17, 28]: 8 µg/mL
MIC [18, 37]: 32 µg/mL
MIC [19, 38]: 16 µg/mL
MIC [20, 39]: > 128 µg/mL
MIC [21, 40]: 8 µg/mL
MIC ([22]; Salmonella enterica, TYPHI): 8 µg/mL
MIC [23, 41]: 2 µg/mL

CC1(C)S[C@@H]2[C@H](N=CN3CCC(Cn4ccnc4CN)CC3)C(=O)N2[C@H]1C(=O)O [J, [2S-(2alpha,5alpha,6beta)]-6-[[[4-[[2-(aminomethyl)-1H-imidazol-1-yl]methyl]-1-piperidinyl]methylene]amino]-3,3-dimethyl-7-oxo-4-thia-1-azabicyclo[3.2.0]heptane-2-carboxylic acid hydrochloride]
MIC [1, 24]: 1 µg/mL
MIC [2, 25]: 4 µg/mL
MIC [3, 26]: 0.125 µg/mL
MIC [4, 27]: 4 µg/mL
MIC [5, 28]: 0.25 µg/mL
MIC [6, 29]: 16 µg/mL
MIC [7, 30]: > 128 µg/mL
MIC [8, 31]: 1 µg/mL
MIC [9, 32]: 0.5 µg/mL
MIC [10, 30]: 0.25 µg/mL
MIC [11, 33]: 128 µg/mL
MIC [12, 32]: > 128 µg/mL
MIC [13, 34]: 8 µg/mL
MIC [14, 28]: 0.25 µg/mL
MIC [15, 35]: 4 µg/mL
MIC [16, 36]: 0.25 µg/mL
MIC [17, 28]: 0.5 µg/mL
MIC [18, 37]: 0.5 µg/mL
MIC [19, 38]: 0.5 µg/mL
MIC [20, 39]: > 128 µg/mL
MIC [21, 40]: 0.5 µg/mL
MIC ([22]; Salmonella enterica, TYPHI): 8 µg/mL
MIC [23, 41]: 0.125 µg/mL

CC1(C)S[C@@H]2[C@H](N=CN3CCCC(CCn4ccnc4)CC3)C(=O)N2[C@H]1C(=O)O.Cl.O (single isomer, unassigned) [D]
MIC ([1]; S. marcescens 5805): 2 µg/mL
MIC ([2]; E. cloacae 9295): 0.5 µg/mL
MIC ([3]; E. coli 387-1): 0.125 µg/mL
MIC ([4]; S. pyogenes 4): 1 µg/mL
MIC [5]: 0.5 µg/mL
MIC ([6]; P. rettgeri ATCC 9250): 0.5 µg/mL
MIC [7]: > 128 µg/mL
MIC ([8]; E. aerogenes 83): 16 µg/mL
MIC [9]: 0.25 µg/mL
MIC [10]: 0.25 µg/mL
MIC [11]: > 128 µg/mL
MIC [12]: > 128 µg/mL
MIC [13]: 16 µg/mL
MIC [14]: 0.125 µg/mL
MIC ([15]; K. pneumoniae 8357): 0.25 µg/mL
MIC [16]: 0.25 µg/mL
MIC [17]: 0.25 µg/mL
MIC ([18]; S. marcescens S714): 1 µg/mL
MIC ([19]; P. aeruginosa 5700): 0.5 µg/mL
MIC [20]: > 128 µg/mL
MIC ([21]; P. mirabilis 190): 0.25 µg/mL
MIC [22]: 0.125 µg/mL
MIC ([23]; E. coli 257): 0.125 µg/mL

Cc1nc(C)n(CCCC2CCN(C=N[C@@H]3C(=O)N4[C@@H]3SC(C)(C)[C@@H]4C(=O)O)CC2)c1C [E, [2S-(2alpha,5alpha,6beta)]-6[[4-[3-[(2,4,5-trimethyl-1H-imidazol-1-yl)propyl]-1-piperidinyl]methylene]amino]-3,3-dimethyl-7-oxo-4-thia-1-azabicyclo[3.2.0]heptane-2-carboxylic acid hydrate hydrochloride]
MIC [1, 24]: 0.5 µg/mL
MIC [2, 25]: 0.25 µg/mL
MIC [3, 26]: 4 µg/mL
MIC [4, 27]: 0.5 µg/mL
MIC [5, 28]: 0.25 µg/mL
MIC [6, 29]: 0.5 µg/mL
MIC [7, 30]: > 128 µg/mL
MIC [8, 31]: 0.5 µg/mL
MIC [9, 32]: 0.125 µg/mL
MIC [10, 30]: > 128 µg/mL
MIC [11, 33]: 128 µg/mL
MIC [12, 32]: > 128 µg/mL
MIC [13, 34]: 8 µg/mL
MIC [14, 28]: 0.5 µg/mL
MIC [15, 35]: 0.062 µg/mL
MIC [16, 36]: 0.062 µg/mL
MIC [17, 28]: 0.125 µg/mL
MIC [18, 37]: 1 µg/mL
MIC [19, 38]: > 128 µg/mL
MIC [20, 39]: > 128 µg/mL
MIC [21, 40]: 0.25 µg/mL
MIC ([22]; Salmonella enterica, TYPHI): 0.062 µg/mL
MIC [23, 41]: 0.062 µg/mL

CC1(C)S[C@@H]2[C@H](N=CN3CCC(C4=NCCN4)CC3)C(=O)N2[C@H]1C(=O)O [L, [2S-(2alpha,5alpha,6beta)]-6-[[[4-(4,5-dihydro-1H-imidazol-2-yl)-1-piperidinyl]methylene]amino]-3,3-dimethyl-7-oxo-4-thia-1-azabicyclo[3.2.0]heptane-2-carboxylic acid hydrochloride]
MIC [1, 24]: 8 µg/mL
MIC [2, 25]: 2 µg/mL
MIC [3, 26]: 0.25 µg/mL
MIC [4, 27]: 0.5 µg/mL
MIC [5, 28]: 0.5 µg/mL
MIC [6, 29]: 1 µg/mL
MIC [7, 30]: 128 µg/mL
MIC [8, 31]: 2 µg/mL
MIC [9, 32]: 2 µg/mL
MIC [10, 30]: 0.5 µg/mL
MIC [11, 33]: 32 µg/mL
MIC [12, 32]: > 128 µg/mL
MIC [13, 34]: 2 µg/mL
MIC [14, 28]: 1 µg/mL
MIC [15, 35]: 2 µg/mL
MIC [16, 36]: 2 µg/mL
MIC [17, 28]: 1 µg/mL
MIC [18, 37]: 2 µg/mL
MIC [19, 38]: 2 µg/mL
MIC [20, 39]: > 128 µg/mL
MIC [21, 40]: 0.5 µg/mL
MIC ([22]; Salmonella enterica, TYPHI): 0.5 µg/mL
MIC [23, 41]: 1 µg/mL
